Experiments:
microglial activation [1] = experiment: Microglial activation in striatum (Iba-1 DAB staining, double-label immunofluorescence, Western blot); assay type: in vivo; conditions: N171-82Q Tg mice, about 50 mg/kg body wt/day via gavage, two months
Protocol: (§1) Three-month old transgenic mice were treated with GTB (about 50 mg/kg body wt/day) via gavage. Control Huntington's disease mice received only 100 μl 0.5% methylcellulose as vehicle. After two months of treatment, microglial activation was monitored in striatal sections by DAB staining (FIG. 3A) and double-label immunofluorescence (FIG. 3B). The results shown in FIGS. 3A-3G represent an analysis of six mice per group.
FIG. 3D depicts the Mean Fluorescence Intensity (MFI) of iNOS in control mice (nTg), untreated N171-82Q mice and GTB treated N171-82Q mice. FIG. 3E is the western blot for Iba-1 and iNOS and FIGS. 3F and 3G are a quantitative analysis of the western blot shown in FIG. 3E.
(§2) As evident from Iba-1 immunostaining as well as Iba-1 Western blot, the inventor found microgliosis in the striatum (FIG. 3) and cortex (FIG. 4) of untreated N171-82Q Tg mice. Activated microglia also express inducible nitric oxide synthase (iNOS).

astroglial activation = experiment: Astroglial activation in striatum and cortex (GFAP DAB staining); assay type: in vivo; conditions: N171-82Q Tg mice, about 50 mg/kg body wt/day via gavage, two months
Protocol: Three-month old transgenic (Tg) mice were treated with glyceryl tribenzoate (about 50 mg/kg body wt/day) via gavage. Control Huntington's disease mice received only 100 μl 0.5% methylcellulose as vehicle. After two months of treatment, astroglial activation was monitored in striatal (FIG. 5A) and cortical (FIG. 5B) sections by DAB staining. Further, the number of glial fibrillary acidic protein (GFAP) (+)ve cells were counted in two striatal (FIG. 5C) and cortical (FIG. 5D) sections of each of six mice per group.
Since astroglia are the major cell type in the CNS, any contribution from this cell type would be significant. Therefore, the inventor also monitored astrogliosis in the CNS of N171-82Q Tg mice.

microglial activation [2] = experiment: Microglial activation in cortex (Iba-1 DAB staining, double-label immunofluorescence, Western blot); assay type: in vivo; conditions: N171-82Q Tg mice, about 50 mg/kg body wt/day via gavage, two months
Protocol: as §1, with “transgenic (Tg)” for “transgenic”, “glyceryl tribenzoate” for “GTB”, “cortical” for “striatal”, “4A)” for “3A)”, “4B).” for “3B).”, “4A-4B” for “3A-3G”
FIG. 4D depicts the Mean Fluorescence Intensity (MFI) of iNOS in control mice (nTg), untreated N171-82Q mice and GTB treated N171-82Q mice. FIG. 4E is the western blot for Iba-1 and iNOS and FIGS. 4F and 4G are a quantitative analysis of the western blot shown in FIG. 4E.
as §2

[3] = tested on: Huntington transgenic (N171-82Q) mice; experiment: Locomotor activities after glyceryl tribenzoate nebulization in Huntington transgenic mice; assay type: in vivo; conditions: nebulization about 2 and about 5 mg/kg body wt/day, six weeks
Source text: Since many features of Huntington's disease are modeled in N171-82Q transgenic mice, the effects of glyceryl tribenzoate nebulization on locomotor activities were examined in N171-82Q mice. A Buxco® Inhalation Tower All-In-One Controller was used to nebulize the glyceryl tribenzoate. A whole-body chamber was fitted with aeroneb ultrasonic nebulizers supplied with air from a Buxco® bias flow pump. Huntington transgenic (N171-82Q) mice were allowed to nebulize glyceryl tribenzoate at doses of about 2 and about 5 mg/kg body wt/day (solubilized in a volume of 100 μl saline/mouse) for 3 min. Briefly, three-month old transgenic mice were treated with different doses (about 2 and about 5 mg/kg body wt/d) of glyceryl tribenzoate solubilized in about 100 μl saline via nebulization. Control Huntington's disease mice received only 100 μl saline as vehicle. After six weeks of treatment, locomotor activities were monitored. Data are mean+SEM of three mice per group.
Velocity refers to the speed at which the mouse walks. Total distance refers to the distance covered by the mouse in a certain period of time. Moving frequency refers to how much a mouse moves around in a given time period and cumulative duration refers to total duration spent at the center.

[4] = tested on: huntingtin (HTT) inclusion bodies; experiment: Huntingtin inclusion bodies in striatum and cortex by immunohistochemistry and Western blotting; assay type: in vivo; conditions: N171-82Q Tg mice, about 50 mg/kg body wt/day via gavage, two months
Protocol: Deposition of huntingtin (HTT) inclusion bodies is a pathological hallmark of Huntington's disease. This pathology is based on an expansion of CAG repeats in exon 1 of the huntingtin gene on chromosome 4 that generates a mutant huntingtin protein leading to abnormal HTT aggregates.
Briefly, three-month old transgenic mice were treated with GTB (about 50 mg/kg body wt/day) via gavage. Control Huntington's disease mice received only 100 μl 0.5% methylcellulose as vehicle. After two months of treatment, huntingtin inclusion bodies (HTT) were monitored in brain sections (striatal—FIG. 2A, cortical—FIG. 2B) by immunohistochemistry. Further, HTT positive (“(+)ve”) cells were counted in two sections (striatal—FIG. 2C, cortical—FIG. 2D) of each of six mice per group.
FIG. 2A and 2B show the results from immunohistochemistry, which indicate that administration of GTB reduces the number of HTT inclusion bodies in striatum and cortex. FIGS. 2C and 2D show the number of HTT (+ve) cells in striatum and cortex of GTB treated and untreated mice and indicate a reduction in the number of HTT in treated mice.
This was also confirmed by Western blotting. By Western blotting, the inventor could detect 348 kDa band of aggregated HTT in the cortex that was inhibited by oral GTB treatment (FIG. 2E-2F).

[5] = tested on: interleukin-6 (IL-6) and IL-1β; experiment: Serum proinflammatory cytokines by sandwich ELISA; assay type: in vivo; conditions: N171-82Q mice, 50 mg/kg body wt/d via gavage, 1 month
Protocol: Three-month old Tg mice (n=3 in each group) were treated with GTB (50 mg/kg body wt/d) mixed with 100 μl 0.5% methylcellulose via gavage. Therefore, control HD mice received only 100 μl 0.5% methylcellulose as vehicle. After 1 month of treatment, levels of interleukin-6 (IL-6) and IL-1β were measured in serum by sandwich ELISA.
Results are mean+SEM of three mice per group. *p<0.05; ***p<0.001.

DJ-1 = conditions: astrocytes and neurons; cited from earlier work
BDNF and NT-3 = conditions: brain cells; cited from earlier work
[6] = tested on: multiple sclerosis (MS) in mice; conditions: cited from earlier work

Row | SMILES | expression of iNOS in striatum (microglial activation [1]) | microgliosis in striatum (microglial activation [1]; Iba-1) | astrogliosis in the CNS (GFAP, striatum and cortex) (astroglial activation) | expression of iNOS in cortex (microglial activation [2]) | microgliosis in cortex (microglial activation [2]; Iba-1) | velocity ([3]; FIG. 1A) | total distance ([3]; FIG. 1B) | moving frequency ([3]; FIG. 1C) | cumulative duration ([3]; FIG. 1D) | rotorod performance ([3]; FIG. 1E) | 348 kDa band of aggregated HTT in the cortex ([4]; Western blotting) | HTT inclusion in the cortex ([4]; immunohistochemistry) | HTT inclusion in the striatum ([4]; immunohistochemistry) | level of IL-1β in serum [5] | level of IL-6 in serum [5] | DJ-1 protein (DJ-1) | production of BDNF (BDNF and NT-3) | production of NT-3 (BDNF and NT-3) | disease process of multiple sclerosis (MS) [6]
1 | O=C(OCC(COC(=O)c1ccccc1)OC(=O)c1ccccc1)c1ccccc1 [glyceryl tribenzoate, 2,3-dibenzoyloxypropyl benzoate] | significantly inhibited | significantly inhibited | reduced | significantly inhibited | significantly inhibited | markedly improved | markedly improved | markedly improved | markedly improved | markedly improved | inhibited | significant reduction | significant reduction | significantly decreases | significantly decreases | – | – | – | –
2 | O=C([O-])c1ccccc1.[Na+] [sodium benzoate] | – | – | – | – | – | – | – | – | – | – | – | – | – | – | – | up-regulates | increases | increases | suppresses

— patent publication US12514842B2, “Use of a benzoate containing composition to treat neurodegenerative disorders” (Rush University Medical Center, priority 2019, dated 2026)
